From paper PMC5587910, “Methionine Sulfoxide Reductase A (MsrA) and Its Function in Ubiquitin-Like Protein Modification in Archaea” (mBio, 2017)

Columns and labels:
HvMsrB (MsrB-StrepII) = target: T1, HvMsrB (MsrB-StrepII) (Haloferax volcanii, UniProt D4GVV0); assay: MSO-peptide reductase assay of cell lysate, HPLC of dabsyl-Met; format: biochemical; conditions: 400 µg cell extract, 200 µM dabsyl-MSO, 20 mM DTT, 25 mM Tris-Cl pH 7.5, 37°C
T1 construct: StrepII-tagged, expressed from plasmid in Hfx. volcanii deletion strains; cell lysate

HvMsrA (MsrA-StrepII) = target: T2, HvMsrA (MsrA-StrepII) (Haloferax volcanii, UniProt D4GQQ9); assay: MSO-peptide reductase assay, HPLC of dabsyl-Met; format: biochemical
T2 construct: gene msrA1; C-terminal StrepII tag; expressed in E. coli Rosetta (DE3), Strep-Tactin and Superdex 75 purified; 21 kDa
T2 sequence (D4GQQ9 1-189): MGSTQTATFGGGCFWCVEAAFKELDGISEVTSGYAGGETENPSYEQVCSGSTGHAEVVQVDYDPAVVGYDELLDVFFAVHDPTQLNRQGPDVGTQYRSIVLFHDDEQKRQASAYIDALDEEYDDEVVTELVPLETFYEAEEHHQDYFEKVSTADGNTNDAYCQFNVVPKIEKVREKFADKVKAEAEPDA

T1 sequence (D4GVV0 entry or part of it): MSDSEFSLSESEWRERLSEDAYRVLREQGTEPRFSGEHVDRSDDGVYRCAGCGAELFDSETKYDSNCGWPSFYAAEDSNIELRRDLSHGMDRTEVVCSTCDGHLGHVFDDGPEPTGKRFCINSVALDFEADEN

Compound | MSO-peptide reductase assay of cell lysate, HPLC of dabsyl-Met (HvMsrB (MsrB-StrepII)) | MSO-peptide reductase assay, HPLC of dabsyl-Met (HvMsrA (MsrA-StrepII); 200 µM dabsyl-MSO, 20 mM DTT, 25 mM Tris-Cl pH 7.5, 37°C, 30 min) | MSO-peptide reductase assay, HPLC of dabsyl-Met (HvMsrA (MsrA-StrepII); inhibitor, 0 to 20 mM MSO, dabsyl-MSO substrate, DTT, Tris-Cl pH 7.5, NaCl 0.2 to 2 M, 37°C, probably competing substrate)
CN(C)c1ccc(N=Nc2ccc(S(=O)(=O)N[C@@H](CC[S+](C)[O-])C(=O)O)cc2)cc1 (stereo partly drawn) [dabsyl-MSO] | HvMsrB was also found to catalyze MSO-peptide reductase activity | HvMsrA was found to catalyze the reduction of the MSO peptide | 
C[S+]([O-])CC[C@H](N)C(=O)O (stereo partly drawn) [MSO] |  |  | DMSO and MSO inhibited the MSO-peptide reductase activity of HvMsrA in a dose-dependent manner
